Structures can show the parent of a compound that is named as a salt.

T1 sequence (Q13639 whole entry): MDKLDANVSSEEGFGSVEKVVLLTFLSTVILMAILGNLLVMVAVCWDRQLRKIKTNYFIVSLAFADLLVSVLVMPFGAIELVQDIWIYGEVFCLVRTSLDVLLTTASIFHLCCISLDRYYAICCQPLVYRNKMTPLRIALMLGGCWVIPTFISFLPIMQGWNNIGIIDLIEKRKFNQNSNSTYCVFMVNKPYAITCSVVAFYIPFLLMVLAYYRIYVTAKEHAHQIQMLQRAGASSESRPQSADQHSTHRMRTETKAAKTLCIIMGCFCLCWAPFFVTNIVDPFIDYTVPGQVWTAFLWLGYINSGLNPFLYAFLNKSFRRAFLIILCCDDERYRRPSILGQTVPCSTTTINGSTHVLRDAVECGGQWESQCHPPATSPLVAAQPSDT

The test addresses T1, recombinant human 5-HT4 receptor (Homo sapiens, UniProt Q13639).
T1 construct: expressed in transfected cells
Kind of test: Determination of EC50 values for 5-HT4 receptor (CHO cells, pCRE-Luc reporter). The class given is cell-based. To be noted: luciferase reporter, 4 hours incubation, read-out: 5-HT4 receptor agonistic binding in-vitro EC50. How it is done: A stable CHO cell line expressing recombinant human 5-HT4 receptor and pCRE-Luc reporter system was used for cell-based assay. The assay offers a non-radioactive based approach to determine binding of a compound to GPCRs. In this specific assay, the level of intracellular cyclic AMP, which is modulated by activation, or inhibition of the receptor is measured. The recombinant cells harbor luciferase reporter gene under the control of cAMP response element.
The above cells were grown in 96 well clear bottom white plates in Hams F12 medium containing 10% fetal bovine serum (FBS). Prior to the addition of compounds or standard agonist, cells were serum starved overnight. Increasing concentrations of test compounds were added in OptiMEM medium to the cells. The incubation was continued at 37° C. in CO2 incubator for 4 hours. Medium was removed and cells were washed with phosphate buffered saline. The cells were lysed and luciferase activity was measured in a Luminometer. Luminescence units were plotted against the compound concentrations using Graphpad software. EC50 values of the compounds were defined as the concentration required in stimulating the luciferase activity by 50%.
Background: A reporter such as luciferase makes a cellular process visible.
The EC50 is the concentration giving half of the maximal effect. `Nc1c(Cl)cc(C(=O)NCC2C3CN(CC4CCOCC4)CC23)c2c1CCCO2` (centres unmarked) [Example 1, 5-Amino-6-chloro-N-{[3-(tetrahydro-2H-pyran-4-ylmethyl)-3-azabicyclo[3.1.0]hex-6-yl]methyl}chroman-8-carboxamide hydrochloride]: the EC50 was at most 1 nM. With `Nc1c(Cl)cc(C(=O)NCC2C3CN(C4CCOCC4)CC23)c2c1CCCO2` (stereo not drawn) [Example 6, 5-Amino-6-chloro-N-{[3-(tetrahydro-2H-pyran-4-yl)-3-azabicyclo[3.1.0]hex-6-yl]methyl}chroman-8-carboxamide L(+)-tartarate], the EC50 is 1.1 to 5 nM.

Take `Nc1ccc(C(=O)NCC2C3CN(CC4CCOCC4)CC23)c2c1CCCO2` (stereo not drawn) [Example 7, 5-Amino-N-{[3-(tetrahydro-2H-pyran-4-ylmethyl)-3-azabicyclo[3.1.0]hex-6-yl]methyl}chroman-8-carboxamide L(+)-tartarate]: the EC50 lay within 10.1 to 20 nM. For `Nc1c(Cl)cc(C(=O)NCC2[C@H]3CN(CC4CCOC4)C[C@@H]23)c2c1CCCO2` (stereo partly drawn) [Example 8, (R,S) 5-Amino-6-chloro-N-{[3-(tetrahydro-3-furanylmethyl)-3-azabicyclo[3.1.0]hex-6-yl]methyl}chroman-8-carboxamide], the EC50 was at most 1 nM. To `Nc1c(Cl)cc(C(=O)NCC2(F)CCN(CC3CCOC3)CC2)c2c1CCCO2` (centres unmarked) [Example 10, 5-Amino-6-chloro-N-{[4-fluoro-1-(tetrahydro-3-furanylmethyl)-4-piperidinyl]methyl}chroman-8-carboxamide] belongs 1.1 to 5 nM; to `Nc1c(Br)cc(C(=O)NCC2C3CN(CC4CCOCC4)CC23)c2c1CCCO2` (stereo not drawn) [Example 12, 5-Amino-6-bromo-N-{[3-(tetrahydro-2H-pyran-4-ylmethyl)-3-azabicyclo[3.1.0]hex-6-yl]methyl}chroman-8-carboxamide L(+)-tartarate], 1.1 to 5 nM; to `Nc1c(Cl)cc(C(=O)NCC2C3CN(CC4CCOCC4)CC23)c2occc12` (centres unmarked) [Example 13, 4-Amino-5-chloro-N-{[3-(tetrahydro-2H-pyran-4-ylmethyl)-3-azabicyclo[3.1.0]hex-6-yl]methyl}benzofuran-7-carboxamide hydrochloride], 5.1 to 10 nM.

For the compound `Nc1c(Cl)cc(C(=O)NCC2C3CN(C4CCOCC4)CC23)c2occc12` (centres unmarked) [Example 15, 4-Amino-5-chloro-N-{[3-(tetrahydro-2H-pyran-4-yl)-3-azabicyclo[3.1.0]hex-6-yl]methyl}benzofuran-7-carboxamide oxalate], the EC50 was 10.1 to 20 nM. Turning to `COC(=O)N1CCC(N2CC3C(CNC(=O)c4cc(Cl)c(N)c5ccoc45)C3C2)CC1` (centres unmarked) [Example 17, 4-Amino-5-chloro-N-{[3-(1-methoxycarbonylpiperidine-4-yl)-3-azabicyclo[3.1.0]hex-6-yl]methyl}benzofuran-7-carboxamide oxalate], the EC50 lay in the range of 5.1 to 10 nM. To `Cc1cc2c(N)c(Cl)cc(C(=O)NCC3C4CN(CC5CCOCC5)CC34)c2o1` (centres unmarked) [Example 18, 4-Amino-5-chloro-2-methyl-N-{[3-(tetrahydro-2H-pyran-4-ylmethyl)-3-azabicyclo[3.1.0]hex-6-yl]methyl}benzofuran-7-carboxamide hydrochloride] belongs 1.1 to 5 nM; to `CC(C)N1CC2C(CNC(=O)c3cc(Cl)c(N)c4c3OCC4)C2C1` (centres unmarked) [Example 20, 4-Amino-5-chloro-N-[(3-isopropyl-3-azabicyclo[3.1.0]hex-6-yl)methyl]-2,3-dihydrobenzofuran-7-carboxamide oxalate], 5.1 to 10 nM. To `Nc1c(Cl)cc(C(=O)NCC2C3CN(CC4CCC4)CC23)c2c1CCO2` (centres unmarked) [Example 22, 4-Amino-5-chloro-N-{[3-(cyclobutylmethyl)-3-azabicyclo[3.1.0]hex-6-yl]methyl}-2,3-dihydrobenzofuran-7-carboxamide oxalate] belongs 1.1 to 5 nM; to `COC(=O)N1CCC(N2CC3C(CNC(=O)c4cc(Cl)c(N)c5c4OCC5)C3C2)CC1` (stereo not drawn) [Example 24, 4-Amino-5-chloro-N-{[3-(1-methoxycarbonylpiperidine-4-yl)-3-azabicyclo[3.1.0]hex-6-yl]methyl}-2,3-dihydrobenzofuran-7-carboxamide L(+)-tartarate], 5.1 to 10 nM. With `Nc1c(Cl)cc(C(=O)NCC2C3CN(CC4CCOCC4)CC23)c2c1CCO2` (stereo not drawn) [Example 26, 4-Amino-5-chloro-N-{[3-(tetrahydropyran-4-ylmethyl)-3-azabicyclo[3.1.0]hex-6-yl]methyl}-2,3-dihydrobenzofuran-7-carboxamide L(+)-tartarate], the EC50 was 1.1 to 5 nM. `Nc1c(Cl)cc(C(=O)NCC2C3CN(C4CCOCC4)CC23)c2c1CCO2` (centres unmarked) [Example 28, 4-Amino-5-chloro-N-{[3-(tetrahydropyran-4-yl)-3-azabicyclo[3.1.0]hex-6-yl]methyl}-2,3-dihydrobenzofuran-7-carboxamide oxalate]: the EC50 lay within 5.1 to 10 nM. For `Nc1c(Br)cc(C(=O)NCC2C3CN(C4CCOCC4)CC23)c2c1CCO2` (centres unmarked) [Example 29, 4-Amino-5-bromo-N-{[3-(tetrahydropyran-4-yl)-3-azabicyclo[3.1.0]hex-6-yl]methyl}-2,3-dihydrobenzofuran-7-carboxamide oxalate], the concentration giving a half-maximal response (EC50) lay in the range of 10.1 to 20 nM. `Nc1c(Cl)cc(C(=O)NCC2C3CN(CC4(O)CCOCC4)CC23)c2c1CCCO2` (stereo not drawn) [Example 30, 5-Amino-6-chloro-N-{[3-(4-hydroxytetrahydro-2H-pyran-4-ylmethyl)-3-azabicyclo[3.1.0]hex-6-yl]methyl}chroman-8-carboxamide L(+)-tartarate]: the EC50 fell in the range of 1.1 to 5 nM. With `Nc1c(Cl)cc(C(=O)NCC2C3CN(CC4(O)CCOCC4)CC23)c2occc12` (centres unmarked) [Example 32, 4-Amino-5-chloro-N-{[3-(4-hydroxytetrahydro-2H-pyran-4-ylmethyl)-3-azabicyclo[3.1.0]hex-6-yl]methyl}benzofuran-7-carboxamide oxalate] the figure was 5.1 to 10 nM. To `Nc1c(Cl)cc(C(=O)NCC2C3CN(CC4(O)CCOCC4)CC23)c2c1CCO2` (centres unmarked) [Example 35, 4-Amino-5-chloro-N-{[3-(4-hydroxytetrahydropyran-4-ylmethyl)-3-azabicyclo[3.1.0]hex-6-yl]methyl}-2,3-dihydrobenzofuran-7-carboxamide oxalate] belongs 1.1 to 5 nM.

In the case of `Nc1c(Cl)cc(C(=O)NCC2C3CN(CC4(F)CCOCC4)CC23)c2c1CCCO2` (stereo not drawn) [Example 36, 5-Amino-6-chloro-N-{[3-(4-fluorotetrahydro-2H-pyran-4-ylmethyl)-3-azabicyclo[3.1.0]hex-6-yl]methyl}chroman-8-carboxamide L(+)-tartarate], the EC50 is at most 1 nM. For `CC(C)(O)CN1CCC(F)(CNC(=O)c2cc(Cl)c(N)c3ccoc23)CC1` [Example 38, 4-Amino-5-chloro-N-{[4-fluoro-1-(2-hydroxy-2-methylpropyl)-4-piperidinyl]methyl}benzofuran-7-carboxamide], the concentration giving a half-maximal response (EC50) lay within 5.1 to 10 nM. To `CC(C)(O)CN1CCC(CNC(=O)c2cc(Cl)c(N)c3c2OCCC3)CC1` [Example 40, 5-Amino-6-chloro-N-{[1-(2-hydroxy-2-methylpropyl)-4-piperidinyl]methyl}chroman-8-carboxamide] belongs at most 1 nM; to `CC(C)(O)CN1CCC(CNC(=O)c2cc(Cl)c(N)c3c2OCCC3)CC1` [Example 41, 5-Amino-6-chloro-N-{[1-(2-hydroxy-2-methylpropyl)-4-piperidinyl]methyl}chroman-8-carboxamide L(+)-tartarate], 10.1 to 20 nM.

The values above are taken from patent publication US9957257B2, “Amide compounds as 5-HT4 receptor agonists” (SUVEN LIFE SCIENCES LIMITED, priority 2015, dated 2018).
